Measured values from patent US5719130A, “Anthracycline derivative having a trifluoromethylated sugar” (Zaidan Hojin Biseibutsu Kagaku Kenkyu Kai, priority 1994, dated 1998).
In brackets after ≈: the same amount, converted by molar mass. Entries after “also recorded” stand apart in the source; their conditions may differ. Where two headings read alike, the source gives them in different places.

Tests used:
[1] = system: adriamycin-resistant P388 cells (P388/ADR); assay: In vitro inhibition of growth of adriamycin-resistant P388 cells, 72 hours (Test Example 3); assay type: cell-based, mouse; conditions: for IC50: Mus musculus, P388/ADR, 72 hours; for growth inhibition of P388/ADR cell (in words): compared with adriamycin, FT-DM, FT-ADM
Protocol: (§1) Furthermore, in order to estimate the antitumor activities of Compound (a) and Compound (b) of this invention represented by the general formula (I), as well as the adriamycinone derivative represented by the formula (II) (namely, Compound (c) of this invention), some "in vitro" tests for inhibiting proliferation of cancer cells were conducted as shown below.
(§2) The above-mentioned Compound (a), Compound (b) or Compound (c) according to this invention were added at varying concentrations to mouse leukemia, P388 cells or adriamycin-resistant P388 cells (P388/ADR) which had been incubated in test tubes containing an appropriate culture medium. The incubation of the tumor cells were then continued for 72 hours from the addition of the test compound, and determination was made to evaluate such concentrations of the test compound which could inhibit the growth of the leukemia cells by 50% (namely, IC50' ng/ml). FT-DM, FT-ADM and adriamycin (as the hydrochloride) were used as comparative compounds and were tested in the same manner as above.

P388 cells = assay: In vitro inhibition of growth of P388 cells, 72 hours (Test Example 3); assay type: cell-based, mouse; conditions: for IC50: Mus musculus; for antitumor activity against P388 cell (in words): compared with other compounds
Protocol: as §1, §2

Leukemia L-1210 cells [2] = assay: Antitumor activity against leukemia L-1210 in CDF1 mice, 60-day observation (Test Example 1); assay type: in vivo, mouse; conditions: for % Increase in life-span (T/C, %): 9 days, 60 d observation, '>' = at least one of four mice survived 60 days; for development of toxicity (in words): 2.5 to 5 mg/kg/day for daunomycin, adriamycin, 0.3 to 1.25 mg/kg/day for Compound (b), low dosages for formula (I)
Protocol: Thus, to evaluate the antitumor effects of the new compounds of this invention against experimental tumors in animals, CDF1 mice (four mice per group) were intraperitoneally transplanted with cells of Leukemia L-1210 at an amount of 1×10^5 cells/mouse. Since an elapsed time of 24 hours from the transplantation of the leukemia cells, a test compound according to this invention was administered intraperitoneally to the mice under test for 9 consecutive days once per day. […] While, mice of the control group (the untreated group) were administered with only physiological saline after the transplantation of the L-1210 cells. During the observation period, the numbers of the surviving mice in the treated group and in the control group were counted, and the mean survival days of mice in the treated group and in the control group were then calculated. From the mean survival day (C) of the untreated mice of the control group and the mean survival day (T) of the treated mice of the treated group, there were evaluated percentages (%) of the increase in the life-span of the treated mice, as T/C %. For a comparison purpose, 7-O-(2,6-dideoxy-2-fluoro-α-L-talopyranosyl)daunomycinone (abbreviation: FT-DM); 7-O-(2,6-dideoxy-2-fluoro-α-L-talopyranosyl)adriamycinone (abbreviation: FT-ADM); daunomycin and adriamycin were also tested in the same manner as above. Incidentally, the mean survival day of mice of the control group (the untreated group) was amounting to 8 to 9 days, and the mean survival day of mice of the comparative groups having received the administration of adriamycin was varying dependently on the dosage of adriamycin.

[3] = human, in vivo; cited from earlier work
Leukemia L-1210 cells [4] = assay: Antitumor activity against leukemia L-1210 in CDF1 mice, 30-day observation (Test Example 2); assay type: in vivo, mouse; conditions: for mice surviving 30 days / mice tested / % Increase in life-span (T/C, %): 9 days; for % Increase in life-span (T/C, %): 30 d observation, '>' = at least one of four mice survived 30 days
Protocol: Since an elapsed time of 24 hours from the transplantation of the leukemia cells, Compound (c) of this invention was administered intraperitoneally to the mice under test for 9 consecutive days once per day. […] While, mice of the control group (the untreated group) were administered with only physiological saline after the transplantation of the L-1210 cells. During the observation period, the numbers of the surviving mice in the treated group and the control group were counted, and the mean survival days of mice in the treated group and in the control group were then calculated. From the mean survival day (C) of the untreated mice of the control group and the mean survival day (T) of the treated mice of the treated group, there were evaluated percentages (%) of the increase in the life-span of the treated mice as T/C %. For a comparison purpose, adriamycin was also tested in the same manner as above.

[5] = 0.3 mg/kg/day to 1.25 mg/kg/day, about 300% or more

Row | Structure (SMILES) | IC50 [1] [µg/mL] | growth inhibition of P388/ADR cell (in words) [1] | IC50 (P388 cells; P388, 72 hours, read-out: IC50) [µg/mL] | antitumor activity against P388 cell (in words) (P388 cells) | antitumor activity in vivo (in words) (Leukemia L-1210 cells [2]) | % Increase in life-span (T/C, %) (Leukemia L-1210 cells [2]; 0.15 mg/kg/day i.p.) [%] | % Increase in life-span (T/C, %) (Leukemia L-1210 cells [2]; 0.3 mg/kg/day i.p.) [%] | % Increase in life-span (T/C, %) (Leukemia L-1210 cells [2]; 0.6 mg/kg/day i.p.) [%] | % Increase in life-span (T/C, %) (Leukemia L-1210 cells [2]; 1.25 mg/kg/day i.p.) [%] | % Increase in life-span (T/C, %) (Leukemia L-1210 cells [2]; 2.5 mg/kg/day i.p.) [%] | % Increase in life-span (T/C, %) (Leukemia L-1210 cells [2]; 5 mg/kg/day i.p.) [%] | development of toxicity (in words) (Leukemia L-1210 cells [2]) | further results
1 | COc1cccc2c1C(=O)c1c(O)c3c(c(O)c1C2=O)C[C@@](O)(C(=O)CO)C[C@@H]3O[C@@H]1O[C@@H](C(F)(F)F)[C@@H](O)[C@@H](O)[C@H]1F [Compound (b), 7-O-(2,6-dideoxy-2,6,6,6-tetrafluoro-α-L-talopyranosyl)adriamycinone] | 0.043 (≈ 0.0698 µM) | can inhibit the growth of P388/ADR cell at the remarkedly lower concentrations than adriamycin; also recorded: at the substantially same concentrations as or at the lower concentrations than FT-DM and FT-ADM | < 0.0098 | to a substantially same degree as that of FT-ADM | remarkedly higher antitumor effects in mice than FT-ADM; also recorded: extraordinarily higher anticancer or antitumor activities than those of adriamycin; also recorded: enhanced anticancer or antitumor activities over the whole range of low dosages of from 0.15 to 1.25 mg/kg of Compound (b), as compared with the comparative drug, FT-ADM | 144 | > 407 | > 459 | > 348 | 233 | 128 | not accompanied by development of toxicity | percentages of increase in the life-span (Leukemia L-1210 cells [2]; [5]): ≥ 300%; survival for 60 days / cure (in words) (Leukemia L-1210 cells [2]; 0.3 to 1.25 mg/kg): some cases of the complete curing of the L-1210 cell-inoculated mice; also recorded: the mouse which could survive for 60 days (namely, the mouse as fully cured from the leukemia) can be observed
2 | COc1cccc2c1C(=O)c1c(O)c3c(c(O)c1C2=O)C[C@@](O)(C(=O)CO)C[C@@H]3O[C@@H]1O[C@@H](C)[C@@H](O)[C@@H](O)[C@H]1F [FT-ADM, 7-O-(2,6-dideoxy-2-fluoro-α-L-talopyranosyl)adriamycinone] | 0.0928 (≈ 0.165 µM) | – | 0.0034 (≈ 0.00604 µM) | – | – | 127 | 182 | 185 | 275 | > 352 | > 740 | – | –
3 | COc1cccc2c1C(=O)c1c(O)c3c(c(O)c1C2=O)C[C@@](O)(C(C)=O)C[C@@H]3O[C@@H]1O[C@@H](C(F)(F)F)[C@@H](O)[C@@H](O)[C@H]1F [Compound (a), 7-O-(2,6-dideoxy-2,6,6,6-tetrafluoro-α-L-talopyranosyl)daunomycinone] | 0.028 (≈ 0.0466 µM) | can inhibit the growth of P388/ADR cell at the remarkedly lower concentrations than adriamycin; also recorded: at the substantially same concentrations as or at the lower concentrations than FT-DM and FT-ADM | – | – | much higher therapeutic effects against the L-1210 leukemia than daunomycin; also recorded: at low dosages of 0.6 to 1.25 mg/kg exhibited much higher therapeutic effects than FT-DM | 106 | 119 | 132 | 294 | 210 | 158 | – | IC50 (P388 cells; P388, 72 h): < 0.0098 µg/mL
4 | COc1cccc2c1C(=O)c1c(O)c3c(c(O)c1C2=O)C[C@@](O)(C(C)=O)C[C@@H]3O[C@H]1C[C@H](N)[C@H](O)[C@H](C)O1 [Daunomycin, daunomycin] | – | – | – | – | – | 132 | 112 | 145 | 158 | 171 | 138 | accompanied by development of toxicity | serious side-effects (in words) [3]: serious side-effects such as leukocytopenia, alopecia, myocardiopathy and others
5 | COc1cccc2c1C(=O)c1c(O)c3c(c(O)c1C2=O)C[C@@](O)(C(=O)CO)C[C@@H]3O[C@H]1C[C@H](O)[C@H](O)[C@H](C(F)(F)F)O1 [Compound (c), 7-O-(2,6-dideoxy-6,6,6-trifluoro-α-L-lyxo-hexopyranosyl)adriamycinone] | 0.17 (≈ 0.284 µM) | higher antitumor activities than adriamycin | < 0.0098 | to a substantially same degree as that of Compound (b) | – | – | – | – | – | – | – | – | concentration inhibiting growth of P388/ADR (IC50) relative to that of adriamycin ([1]; 1/3-folds lower than that of adriamycin): 1/3; mice surviving 30 days / mice tested (Leukemia L-1210 cells [4]; 0.15 mg/kg/day i.p.): 3/4; % Increase in life-span (T/C, %) (Leukemia L-1210 cells [4]; 0.15 mg/kg/day i.p.): > 335%; mice surviving 30 days / mice tested (Leukemia L-1210 cells [4]; 0.3 mg/kg/day i.p.): 3/4; % Increase in life-span (T/C, %) (Leukemia L-1210 cells [4]; 0.3 mg/kg/day i.p.): > 329%; percentages of increase in the life-span (Leukemia L-1210 cells [4]; [5]): ≥ 300%; mice surviving 30 days / mice tested (Leukemia L-1210 cells [4]; 0.6 mg/kg/day i.p.): 2/4; % Increase in life-span (T/C, %) (Leukemia L-1210 cells [4]; 0.6 mg/kg/day i.p.): > 283%; % Increase in life-span (T/C, %) (Leukemia L-1210 cells [4]; 1.25 mg/kg/day i.p.): 203%; % Increase in life-span (T/C, %) (Leukemia L-1210 cells [4]; 2.5 mg/kg/day i.p.): 194%; % Increase in life-span (T/C, %) (Leukemia L-1210 cells [4]; 5 mg/kg/day i.p.): 135%; complete curing (in words) (Leukemia L-1210 cells [4]; 0.3 to 1.25 mg/kg/day): some cases of the complete curing of the L-1210 cell-inoculated mice; development of toxicity (in words) (Leukemia L-1210 cells [4]; 0.3 to 1.25 mg/kg/day, low dosages): not accompanied by development of toxicity; antitumor activity in vivo (in words) (Leukemia L-1210 cells [4]; 0.6 to 0.15 mg/kg): very much higher anticancer or antitumor activities than those of adriamycin; mice which could survive for 30 days (Leukemia L-1210 cells [4]; amongst totally 12 test mice, 0.6 to 0.15 mg/kg): 8 mice
6 | COc1cccc2c1C(=O)c1c(O)c3c(c(O)c1C2=O)C[C@@](O)(C(C)=O)C[C@@H]3O[C@@H]1O[C@@H](C)[C@@H](O)[C@@H](O)[C@H]1F [FT-DM, 7-O-(2,6-dideoxy-2-fluoro-α-L-talopyranosyl)daunomycinone] | 0.15 (≈ 0.274 µM) | – | 0.033 (≈ 0.0604 µM) | – | – | 105 | 105 | 125 | 171 | 217 | 184 | – | –
